Results published in US7741244B2, “Fungicide compositions” (priority 2002, dated 2010).

Key:
Botrytis cinerea [1] = assay: Inhibition of fungal infections on fresh raspberries (Example 9); format: in vivo; conditions: raspberries (Heritage), 60 s dip
Botrytis cinerea [2] = assay: PDA plate inhibition, caprylic acid and organic acids (Example 13); format: cell-based; conditions: PDA plates
White mold = assay: as above; format: cell-based; conditions: PDA plates
Late blight = format: cell-based; conditions: PDA plates; day 2 after inoculum; control plate = 100%
Septoria = conditions: PDA plates, control plate = 100%

## O=C(O)C(O)C(O)C(=O)O (stereo not shown) [0.75% tartaric acid, tartaric acid]
Botrytis cinerea [1]; day 2
  Infected berries (% of total) Day 2: 31%
Botrytis cinerea [1]; day 3
  Infected berries (% of total) Day 3: 58%
Botrytis cinerea [1]; day 4
  Infected berries (% of total) Day 4: 86%
Botrytis cinerea [1]; day 6
  Infected berries (% of total) Day 6: 92%
Botrytis cinerea [1]; day 8
  Infected berries (% of total) Day 8: 92%
Botrytis cinerea [1]; day 10
  Infected berries (% of total) Day 10: 92%
Botrytis cinerea [1]; day 12
  Infected berries (% of total) Day 12: 92%

## O=C(O)CCC(=O)O [0.010% succinic acid, succinic acid]
Botrytis cinerea [2]
  Inhibition (%) of Botrytis cinerea: 0%
White mold
  Inhibition (%) of white mold: 0%

## O=C(O)CO [glycolic acid]
Late blight
  Measurement of fungal growth, Late blight Day 2: 79%
Botrytis cinerea [2]
  Inhibition (%) of Botrytis cinerea: 0%
White mold
  Inhibition (%) of white mold: 0%
Septoria; day 2 after inoculum
  Measurement of fungal growth, Septoria Day 2: 80%
Septoria; day 3 after inoculum
  Measurement of fungal growth, Septoria Day 3: 90%

## O=C(O)CC(O)(CC(=O)O)C(=O)O [0.010% citric acid, citric acid]
Botrytis cinerea [2]
  Inhibition (%) of Botrytis cinerea: 0%
White mold
  Inhibition (%) of white mold: 0%
